From patent publication US20130072519A1, “2-PHENYL BENZOYLAMIDES” (priority 2010, published 2013) come the findings set out here.

As a reminder, the IC50 is the concentration at which inhibition is half-maximal. Lower therefore signals greater potency in that assay.

Data set [1] is described as follows: Human intestinal microsomal stability. The format is in vitro ADME. The note with it: Human Intestinal Microsomes 0.76 mg/mL, 1 μM compound, 37° C. The method, then: (§1) Pooled human liver or intestinal microsomes (final concentration 0.76 mg/mL) were diluted in 100 mM potassium phosphate buffer (pH 7.4) and preincubated at 37° C. The compounds of interest were dissolved in DMSO (30 mM), diluted to 100 μM in acetonitrile or methanol, and added to the microsomal incubations to achieve a final concentration of 1 μM with 1% or less final organic solvent. The mixtures were incubated for 30 min at 37° C. Aliquots were removed at predetermined times and quenched with an excess acetonitrile, containing an internal standard, on ice. Following centrifugation, the analytes were quantified by liquid chromatography-tandem mass spectrometry (LC-MS/MS). The compound remaining (%) was calculated from the analyte area ratio at the predetermined time/initial analyte area ratio at time 0×100.

The nature of data set [2]: Human liver microsomal stability. The note with it: Human Liver Microsomes 0.76 mg/mL, 1 μM compound, 37° C. The class given is in vitro ADME. The method, then:
as §1
For orientation: Liver microsomes are a subcellular fraction often used to study metabolism.

The test system of data set [3] is Apolipoprotein B Secretion from HepG2 Cells. Kind of data set: Inhibition of Apolipoprotein B secretion from HepG2 cells (ELISA). The class given is cell-based, human. The note with it: Homo sapiens, HepG2, HepG2 cells, 22-24 hours incubation, ApoB ELISA; Low/High IC50 columns give the 95% confidence interval. A general note: ELISA stands for enzyme-linked immunosorbent assay.

For `CCOC(=O)[C@]1(COC(=O)Cc2ccc(NC(=O)c3ccccc3-c3ccc(OC(C)C)cc3)c(C(=O)N(C)C)c2)c2ccccc2C(=O)N1C` [Example 50, Ethyl (1R)-1-({2-[3-(dimethylcarbamoyl)-4-{[(4′-isopropoxybiphenyl-2-yl)carbonyl]amino}phenyl]acetoxy}methyl)-2-methyl-3-oxoisoindoline-1-carboxylate], the “Compound remaining (%) at 4 min” value in data set [1] (pH 7.4, 4 min) came out at 100%; in data set [2] (pH 7.4, 4 min) it was 48%. Also, the “Compound remaining (%) at 30 min” value was 92% in data set [1] (pH 7.4, 30 min) and 3.7% in data set [2] (pH 7.4, 30 min). Further, the midpoint of inhibition in data set [3], the IC50, lay at 124 pM.
